{"source": "patent US9248162B2", "about": "“Factor H for treatment of rheumatoid arthritis” (Baxter International Inc., priority 2013, dated 2016)", "format_in_all_cases": "in vivo, Balb C mice", "key": {"[1]": {"system": "collagen antibody-induced arthritis", "experiment": "Mouse CAIA: ankle histology scores (H & E)", "set-up": "key: 0: normal; 1: minimal infiltration of inflammatory cells in periarticular tissue; 2: mild infiltration; 3: moderate infiltration with moderate edema; 4: marked infiltration with marked edema; 5: severe infiltration with severe edema", "details": "individual animal, score 0-5, endpoint day 22, listed as Group 3", "protocol": "(§1) Balb C mice (n=10 per cohort) were used to determine the efficacy of Factor H (FH) during […]. The mice were treated with ArthritoMAb (anti-collagen) antibody cocktail (2 mg, i.v.) on day 1, followed 7 days later with an injection of LPS (50 μg, i.p.). On day 8, hind paw volumes were measured for each animal and distributed to various treatment groups.\n(§2) Dosing with the different agents was started on day 8 as described in Table 3.\n(§3) Hind paw volumes were measured on day 8, 11, 12, 13, 15, 19 and 22 (endpoint). The age at start date was 7 to 9 weeks. Body weights were measured bi-weekly to the endpoint (Table 4). At the endpoint, tissue samples were processed for histology and submitted to a pathologist for independent analysis. Sampling 1 was performed at the endpoint. The hind limbs were preserved in 10% formalin. Sampling 2 was performed at the endpoint for group 4 animals. Blood was collected by terminal cardiac puncture. The blood was processed for anti-coagulant. The kidneys were additionally preserved in formalin and followed with 70% EtOH. Samples were scored for inflammation, pannus (granulation tissue), cartilage damage, bone resorption and exostosis (Table 5)."}, "[2]": {"system": "collagen antibody-induced arthritis", "experiment": "Mouse CAIA: hind paw / footpad volume (swelling, disease burden)", "set-up": "Mean Disease Burden / Total Disease Burden (AUC) / Hind Limb Volume, Mean Diff. / Total Disease, Mean Diff.: unit not given here", "details": "for % Disease Suppression / Total Disease Burden (AUC): days 8-22", "protocol": "as §1\nFactor H was formulated in 20 mM Citrate, 150 mM NaCl, pH=6. […] Ethanercept was formulated as Enbrel™ in saline. Vehicle was formulated in 20 mM Citrate, 150 mM NaCl, pH=6. […] The dosing volume for Factor H and BX12 was 25 mL/kg (0.500 mL/20 g mouse) and adjusted accordingly for body weight.\nas §2\nas §3, with “The” for “Hind paw volumes were measured on day 8, 11, 12, 13, 15, 19 and 22 (endpoint). The”"}, "[3]": {"experiment": "Mouse CAIA: body weight and tolerability", "details": "mouse, in vivo", "protocol": "as §1, §2, §3"}, "[4]": {"system": "collagen antibody-induced arthritis", "experiment": "Mouse CAIA: ankle histology scores (H & E)", "set-up": "key to Score From H & E: Inflammation: 0: normal; 1: minimal infiltration of inflammatory cells in periarticular tissue; 2: mild infiltration; 3: moderate infiltration with moderate edema; 4: marked infiltration with marked edema; 5: severe infiltration with severe edema; key to Exostosis, Summary (significance) / Composite, Summary (significance) / Pannus, Summary (significance) / Cartilage, Summary (significance) / Inflammation, Summary (significance): ns: = not significant; *: = P < 0.05; **: = P < 0.01; ***: = P < 0.001; Composite Biohistopathology Score, group value / Composite Biohistopathology Score: scale not given here", "protocol": "as §1, §2, §3"}, "[5]": {"system": "collagen antibody-induced arthritis", "experiment": "Mouse CAIA: ankle histology scores (H & E)", "set-up": "key: 0: normal; 1: minimal; 2: mild; 3: moderate; 4: marked; 5: severe", "details": "individual animal, score 0-5, endpoint day 22, listed as Group 3", "protocol": "as §1, §2, §3"}, "[6]": {"system": "collagen antibody-induced arthritis", "experiment": "Mouse CAIA: ankle histology scores (H & E)", "set-up": "key: 0: normal; 1: minimal to mild loss of staining density with no obvious chondrocyte loss or collagen disruption; 2: mild loss of staining density with focal mild (superficial) chondrocyte loss and/or collagen disruption; 3: moderate loss of staining density with multifocal moderate (depth to middle zone) chondrocyte loss and/or collagen disruption; 4: marked loss of staining density with multifocal marked (depth to deep zone) chondrocyte loss and/or collagen disruption; 5: severe diffuse loss of staining density with multifocal severe (depth to tide mark) chondrocyte loss and/or collagen disruption", "details": "individual animal, score 0-5, endpoint day 22, listed as Group 3", "protocol": "as §1, §2, §3"}, "[7]": {"details": "Vehicle vs agent, Dunnett's Multiple Comparison Test"}, "[8]": {"details": "Vehicle vs agent, Dunn's Multiple Comparison Test"}, "[9]": {"details": "ankle, group mean ± spread, 10 animals, score 0-5"}, "[10]": {"details": "histopathology score, graded 1-5, hind limbs at endpoint, group value"}}, "note": "Values joined by “and” are separate entries in the source; they are usually repeats but may differ in a detail not shown here. Equal entries are not always repeated. Marks after values point to notes of the source that are not given here."}
{"substance": "Etanercept", "values": [{"measurement": "Score From H & E: Bone Resorption", "setting": "[1]", "value": 0}, {"measurement": "Score From H & E: Cartilage Damage", "setting": "[1]", "value": 0}, {"measurement": "Score From H & E: Pannus", "setting": "[1]", "value": "2 (3×) and 0 (5×)"}, {"measurement": "Score From H & E: Periosteal/Exostotic Changes", "setting": "[1]", "value": 0}, {"measurement": "Hind Limb Volume, Mean Diff.", "setting": "[2]; [7]", "value": 0.08143}, {"measurement": "Hind Limb Volume, Summary (significance)", "setting": "[2]; [7]", "value": "** (= P < 0.01)"}, {"measurement": "Total Disease, Mean Diff.", "setting": "[2]; [7]", "value": 1.19}, {"measurement": "Total Disease, Summary (significance)", "setting": "[2]; [7]", "value": "** (= P < 0.01)"}, {"measurement": "Hind paw volume", "setting": "[2]; day 8 of study, group mean, n 10", "value": 0.35, "unit": "mL"}, {"measurement": "Hind paw volume", "setting": "[2]; day 8 of study, individual animal", "value": "0.41 mL and 0.4 mL and 0.38 mL and 0.37 mL and 0.35 mL and 0.34 mL and 0.32 mL and 0.31 mL and 0.3 mL (2×)"}, {"measurement": "Hind paw volume", "setting": "[2]; day 11 of study, group mean, n 10", "value": 0.44, "unit": "mL"}, {"measurement": "Hind paw volume", "setting": "[2]; day 11 of study, individual animal", "value": "0.49 mL and 0.44 mL (2×) and 0.37 mL and 0.38 mL and 0.59 mL and 0.4 mL (2×) and 0.45 mL and 0.41 mL"}, {"measurement": "Hind paw volume", "setting": "[2]; day 12 of study, group mean, n 10", "value": 0.44, "unit": "mL"}, {"measurement": "Hind paw volume", "setting": "[2]; day 12 of study, individual animal", "value": "0.58 mL and 0.44 mL and 0.35 mL and 0.42 mL and 0.46 mL and 0.49 mL and 0.45 mL and 0.39 mL (2×) and 0.4 mL"}, {"measurement": "Hind paw volume", "setting": "[2]; day 13 of study, group mean, n 10", "value": 0.42, "unit": "mL"}, {"measurement": "Hind paw volume", "setting": "[2]; day 13 of study, individual animal", "value": "0.58 mL and 0.41 mL (2×) and 0.36 mL and 0.33 mL and 0.49 mL and 0.39 mL and 0.35 mL and 0.43 mL and 0.4 mL"}, {"measurement": "Hind paw volume", "setting": "[2]; day 16 of study, group mean, n 10", "value": 0.38, "unit": "mL"}, {"measurement": "Hind paw volume", "setting": "[2]; day 16 of study, individual animal", "value": "0.45 mL and 0.46 mL and 0.34 mL and 0.37 mL and 0.43 mL and 0.41 mL and 0.33 mL (2×) and 0.32 mL and 0.3 mL"}, {"measurement": "Hind paw volume", "setting": "[2]; day 19 of study, group mean, n 10", "value": 0.42, "unit": "mL"}, {"measurement": "Hind paw volume", "setting": "[2]; day 19 of study, individual animal", "value": "0.61 mL and 0.43 mL and 0.4 mL and 0.47 mL (2×) and 0.32 mL and 0.42 mL and 0.35 mL and 0.33 mL and 0.36 mL"}, {"measurement": "Hind paw volume", "setting": "[2]; day 22 of study, group mean, n 10", "value": 0.38, "unit": "mL"}, {"measurement": "Hind paw volume", "setting": "[2]; day 22 of study, individual animal", "value": "0.55 mL and 0.41 mL (2×) and 0.34 mL (2×) and 0.39 mL and 0.36 mL (3×) and 0.32 mL"}, {"measurement": "% Disease Suppression", "setting": "[2]; group mean, n 10", "value": 61.66, "unit": "%"}, {"measurement": "Total Disease Burden (AUC)", "setting": "[2]; group mean, n 10", "value": 0.74}, {"measurement": "% Disease Suppression", "setting": "[2]; individual animal", "value": "16.3% and 74.3% and 109.8% and 81.9% and 52.3% and 49.7% and 69.4% and 70.2% and 29.0% and 63.7%"}, {"measurement": "Total Disease Burden (AUC)", "setting": "[2]; individual animal", "value": "1.62 and 0.58 (2×) and −0.19 and 0.35 and 0.92 and 0.97 and 0.59 and 1.37 and 0.70"}, {"measurement": "Maximum Δ Mean Volume", "setting": "[2]; difference between mean combined foot pad volumes on day 8 and on median day of maximal swelling, vehicle 0.21", "value": "0.13** ml"}, {"measurement": "Mean Disease Burden", "setting": "[2]; group mean AUC of combined footpad volume over baseline, days 8 to 22, vehicle 1.93", "value": "0.74**"}, {"measurement": "% Disease Suppression (vs Vehicle)", "setting": "[2]; percent decrease in total disease burden relative to vehicle", "value": 61.7, "unit": "%"}, {"measurement": "Mean Body Weigh at Nadir", "setting": "[3]", "value": "−5.7", "unit": "%"}, {"measurement": "Cartilage, Difference in rank sum", "setting": "[4]; [8]", "value": "−1.5"}, {"measurement": "Cartilage, Summary (significance)", "setting": "[4]; [8]", "value": "ns"}, {"measurement": "Composite, Difference in rank sum", "setting": "[4]; [8]", "value": 2.1}, {"measurement": "Composite, Summary (significance)", "setting": "[4]; [8]", "value": "ns"}, {"measurement": "Exostosis, Difference in rank sum", "setting": "[4]; [8]", "value": 5.8}, {"measurement": "Exostosis, Summary (significance)", "setting": "[4]; [8]", "value": "ns"}, {"measurement": "Inflammation, Difference in rank sum", "setting": "[4]; [8]", "value": 3.6}, {"measurement": "Inflammation, Summary (significance)", "setting": "[4]; [8]", "value": "ns"}, {"measurement": "Pannus, Difference in rank sum", "setting": "[4]; [8]", "value": 0.3}, {"measurement": "Pannus, Summary (significance)", "setting": "[4]; [8]", "value": "ns"}, {"measurement": "Composite Biohistopathology Score, group value", "setting": "[4]; ankle, group mean ± spread, 10 animals", "value": "6.0 ± 2.1"}, {"measurement": "Score From H & E: Bone Resorption, group value", "setting": "[4]; [9]", "value": "1.0 ± 0.4"}, {"measurement": "Score From H & E: Cartilage Damage, group value", "setting": "[4]; [9]", "value": "0.7 ± 0.3"}, {"measurement": "Score From H & E: Inflammation, group value", "setting": "[4]; [9]", "value": "1.5 ± 0.5"}, {"measurement": "Score From H & E: Pannus, group value", "setting": "[4]; [9]", "value": "1.4 ± 0.5"}, {"measurement": "Score From H & E: Periosteal/Exostotic Changes, group value", "setting": "[4]; [9]", "value": "1.4 ± 0.6"}, {"measurement": "Composite Biohistopathology Score", "setting": "[4]; ankle, individual animal, endpoint day 22, listed as Group 3", "value": "11 (2×) and 0 (4×) and 16 and 15 and 1 and 4"}, {"measurement": "Score From H & E: Inflammation", "setting": "[4]; ankle, individual animal, score 0-5, endpoint day 22, listed as Group 3", "value": "3 (4×) and 0 (4×) and 1 and 2"}, {"measurement": "Composite Score", "setting": "[4]; histopathology composite, hind limbs at endpoint, group value", "value": "6.0 ± 2.1^ns"}, {"measurement": "Bone Resorption", "setting": "[4]; [10]", "value": "1.0 ± 0.4^ns"}, {"measurement": "Cartilage Damage", "setting": "[4]; [10]", "value": "0.7 ± 0.3^ns"}, {"measurement": "Exostosis", "setting": "[4]; [10]", "value": "1.4 ± 0.6^ns"}, {"measurement": "Inflammation", "setting": "[4]; [10]", "value": "1.5 ± 0.5^ns"}, {"measurement": "Pannus", "setting": "[4]; [10]", "value": "1.4 ± 0.5^ns"}, {"measurement": "Score From H & E: Bone Resorption", "setting": "[5]", "value": "1 and 3 (3×)"}, {"measurement": "Score From H & E: Periosteal/Exostotic Changes", "setting": "[5]", "value": "4 (2×) and 3 (2×)"}, {"measurement": "Score From H & E: Cartilage Damage", "setting": "[6]", "value": "1 (3×) and 2 (2×)"}]}
